From ChEMBL document CHEMBL1129815, “Ester prodrugs of ampicillin tailored for intracellular accumulation” (Bioorg Med Chem Lett, 1997)
Values after ≈ are worked out from the molar mass of the structure shown.

test system: Staphylococcus aureus; experiment: The minimum inhibition concentration (MIC) against Staphylococcus aureus after hydrolysis 24 hr in phosphate buffer was determined; type: functional; details: not given

Row | Structure (SMILES) | MIC [µM]
1 | CC1(C)S[C@@H]2[C@H](NC(=O)[C@H](N)c3ccccc3)C(=O)N2[C@H]1C(=O)OCN1C(=O)CC(=C2CCCCC2)C1=O [listing 1 of 2 here] | 1.16 (≈ 0.627 µg/mL)
2 | CC1(C)S[C@@H]2[C@H](NC(=O)[C@H](N)c3ccccc3)C(=O)N2[C@H]1C(=O)OCN1C(=O)c2ccccc2C1=O [listing 1 of 2 here] | 0.53 (≈ 0.27 µg/mL)
3 | CC(C)(C)C(=O)OCOC(=O)[C@@H]1N2C(=O)[C@@H](NC(=O)C(N)c3ccccc3)[C@H]2SC1(C)C (single isomer, unassigned) [PIVAMPICILLIN] | 0.65 (≈ 0.301 µg/mL)

test system: not listed separately; experiment: Half-life in 0.02 M phosphate buffer, 0.15 M NaCl, at a pH of 7.4, at 37 degree Celsius was determined; type: ADME; details: pH 7.4

Row | Structure (SMILES) | half-life [h]
4 | CC1(C)S[C@@H]2[C@H](NC(=O)[C@H](N)c3ccccc3)C(=O)N2[C@H]1C(=O)OCn1c(=O)oc2ccccc21 | 2.5
5 | CC1(C)S[C@@H]2[C@H](NC(=O)[C@H](N)c3ccccc3)C(=O)N2[C@H]1C(=O)OCN1C(=O)CCCC1=O | 3
6 | CC1(C)S[C@@H]2[C@H](NC(=O)[C@H](N)c3ccccc3)C(=O)N2[C@H]1C(=O)OCN1C(=O)CCC1=O | 2.5
7 | CC1(C)S[C@@H]2[C@H](NC(=O)[C@H](N)c3ccccc3)C(=O)N2[C@H]1C(=O)OCN1C(=O)CC(=C2CCCCC2)C1=O [listing 2 of 2 here] | 5.13
8 | CC1(C)S[C@@H]2[C@H](NC(=O)[C@H](N)c3ccccc3)C(=O)N2[C@H]1C(=O)OCN1C(=O)c2ccccc2S1(=O)=O | 1.08
9 | CC1(C)S[C@@H]2[C@H](NC(=O)[C@H](N)c3ccccc3)C(=O)N2[C@H]1C(=O)OCOc1ccccc1 | 3.58
10 | CC1(C)S[C@@H]2[C@H](NC(=O)[C@H](N)c3ccccc3)C(=O)N2[C@H]1C(=O)OCN1C(=O)c2ccccc2C1=O [listing 2 of 2 here] | 1.08
11 | CC(C)(C)C(=O)OCOC(=O)[C@@H]1N2C(=O)[C@@H](NC(=O)C(N)c3ccccc3)[C@H]2SC1(C)C (single isomer, unassigned) [PIVAMPICILLIN] | 2
